Experimental data as given in ChEMBL document CHEMBL4507268 (2021).

Assays:
Settings in all cases: Compound concentration 1000.0 nM
[1] = biological target: Mitogen-activated protein kinase 14 (Homo sapiens) (UniProt Q16539)
[2] = biological target: Myosin light chain kinase, smooth muscle (Homo sapiens) (UniProt Q15746)
[3] = biological target: T1, Serine/threonine-protein kinase BRSK1 (Homo sapiens) (UniProt Q8TDC3)
T1 sequence (whole entry): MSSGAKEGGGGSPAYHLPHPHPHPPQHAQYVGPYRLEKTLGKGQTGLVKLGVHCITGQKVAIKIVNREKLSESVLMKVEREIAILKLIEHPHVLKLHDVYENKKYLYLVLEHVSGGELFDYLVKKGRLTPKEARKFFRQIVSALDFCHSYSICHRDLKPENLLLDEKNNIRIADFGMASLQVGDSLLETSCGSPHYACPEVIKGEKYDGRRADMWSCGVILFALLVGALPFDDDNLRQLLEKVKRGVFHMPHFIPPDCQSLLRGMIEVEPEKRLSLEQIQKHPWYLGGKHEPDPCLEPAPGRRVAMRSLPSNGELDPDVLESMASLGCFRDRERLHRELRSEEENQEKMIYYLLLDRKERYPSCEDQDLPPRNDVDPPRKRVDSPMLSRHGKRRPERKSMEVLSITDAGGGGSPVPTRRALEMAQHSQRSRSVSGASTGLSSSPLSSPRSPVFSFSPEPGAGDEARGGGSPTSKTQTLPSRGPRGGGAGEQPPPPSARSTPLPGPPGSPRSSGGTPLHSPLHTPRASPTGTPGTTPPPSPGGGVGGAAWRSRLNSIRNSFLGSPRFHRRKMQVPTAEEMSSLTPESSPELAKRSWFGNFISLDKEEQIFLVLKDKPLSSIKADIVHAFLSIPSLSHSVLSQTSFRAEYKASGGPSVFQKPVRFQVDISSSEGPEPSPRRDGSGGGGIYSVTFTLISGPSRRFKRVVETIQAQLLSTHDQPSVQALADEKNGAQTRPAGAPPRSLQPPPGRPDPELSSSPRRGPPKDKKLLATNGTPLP

[4] = biological target: Mitogen-activated protein kinase 1 (Homo sapiens) (UniProt P28482)
[5] = biological target: Ribosomal protein S6 kinase alpha-5 (Homo sapiens) (UniProt O75582)
[6] = tested on: Mast/stem cell growth factor receptor Kit (Homo sapiens), P10721 [V559D]
[7] = biological target: T2, Mitogen-activated protein kinase kinase kinase 7 (Homo sapiens) (UniProt O43318)
T2 sequence (whole entry): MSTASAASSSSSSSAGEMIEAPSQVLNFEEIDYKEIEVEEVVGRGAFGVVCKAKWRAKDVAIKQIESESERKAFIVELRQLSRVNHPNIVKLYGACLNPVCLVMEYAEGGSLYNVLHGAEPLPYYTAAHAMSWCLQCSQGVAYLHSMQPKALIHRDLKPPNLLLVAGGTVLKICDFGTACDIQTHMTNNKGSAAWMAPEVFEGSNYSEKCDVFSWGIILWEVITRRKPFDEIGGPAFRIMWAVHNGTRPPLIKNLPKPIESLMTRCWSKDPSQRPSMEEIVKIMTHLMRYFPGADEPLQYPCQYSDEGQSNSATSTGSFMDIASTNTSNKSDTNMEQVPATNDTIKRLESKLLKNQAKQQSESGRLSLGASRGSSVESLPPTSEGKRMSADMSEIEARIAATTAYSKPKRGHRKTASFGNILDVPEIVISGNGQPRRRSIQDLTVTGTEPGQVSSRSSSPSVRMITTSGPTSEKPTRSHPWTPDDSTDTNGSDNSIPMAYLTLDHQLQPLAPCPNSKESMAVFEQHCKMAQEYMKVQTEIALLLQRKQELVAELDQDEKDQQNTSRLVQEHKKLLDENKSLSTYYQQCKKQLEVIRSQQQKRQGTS

[8] = biological target: T3, Aurora kinase A (Homo sapiens) (UniProt O14965)
T3 sequence (whole entry): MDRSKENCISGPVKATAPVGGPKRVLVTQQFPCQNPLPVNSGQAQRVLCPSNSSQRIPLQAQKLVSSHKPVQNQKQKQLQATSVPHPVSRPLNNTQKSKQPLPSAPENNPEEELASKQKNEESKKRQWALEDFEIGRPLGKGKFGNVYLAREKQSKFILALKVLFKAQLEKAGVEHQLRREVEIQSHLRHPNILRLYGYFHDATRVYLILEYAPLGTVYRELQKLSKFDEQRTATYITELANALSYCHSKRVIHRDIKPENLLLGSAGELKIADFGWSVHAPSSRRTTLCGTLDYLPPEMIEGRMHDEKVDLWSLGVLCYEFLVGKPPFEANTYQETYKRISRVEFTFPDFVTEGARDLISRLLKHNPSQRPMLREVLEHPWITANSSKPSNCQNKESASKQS

[9] = biological target: Phosphatidylinositol 4-phosphate 5-kinase type-1 gamma (Homo sapiens) (UniProt O60331)
[10] = biological target: Phosphatidylinositol 4,5-bisphosphate 3-kinase catalytic subunit delta isoform (Homo sapiens) (UniProt O00329)
[11] = biological target: Platelet-derived growth factor receptor beta (Homo sapiens) (UniProt P09619)
[12] = biological target: Serine/threonine-protein kinase 33 (Homo sapiens) (UniProt Q9BYT3)
[13] = biological target: Ribosomal protein S6 kinase alpha-1 (Homo sapiens) (UniProt Q15418)
[14] = biological target: Tyrosine-protein kinase Yes (Homo sapiens) (UniProt P07947)
[15] = biological target: Serine/threonine-protein kinase SBK1 (Homo sapiens) (UniProt Q52WX2)
[16] = biological target: Calcium/calmodulin-dependent protein kinase kinase 2 (Homo sapiens) (UniProt Q96RR4)
[17] = biological target: Citron Rho-interacting kinase (Homo sapiens) (UniProt O14578)

Sequence of Ribosomal protein S6 kinase alpha-1 (Homo sapiens) (Q15418 whole entry): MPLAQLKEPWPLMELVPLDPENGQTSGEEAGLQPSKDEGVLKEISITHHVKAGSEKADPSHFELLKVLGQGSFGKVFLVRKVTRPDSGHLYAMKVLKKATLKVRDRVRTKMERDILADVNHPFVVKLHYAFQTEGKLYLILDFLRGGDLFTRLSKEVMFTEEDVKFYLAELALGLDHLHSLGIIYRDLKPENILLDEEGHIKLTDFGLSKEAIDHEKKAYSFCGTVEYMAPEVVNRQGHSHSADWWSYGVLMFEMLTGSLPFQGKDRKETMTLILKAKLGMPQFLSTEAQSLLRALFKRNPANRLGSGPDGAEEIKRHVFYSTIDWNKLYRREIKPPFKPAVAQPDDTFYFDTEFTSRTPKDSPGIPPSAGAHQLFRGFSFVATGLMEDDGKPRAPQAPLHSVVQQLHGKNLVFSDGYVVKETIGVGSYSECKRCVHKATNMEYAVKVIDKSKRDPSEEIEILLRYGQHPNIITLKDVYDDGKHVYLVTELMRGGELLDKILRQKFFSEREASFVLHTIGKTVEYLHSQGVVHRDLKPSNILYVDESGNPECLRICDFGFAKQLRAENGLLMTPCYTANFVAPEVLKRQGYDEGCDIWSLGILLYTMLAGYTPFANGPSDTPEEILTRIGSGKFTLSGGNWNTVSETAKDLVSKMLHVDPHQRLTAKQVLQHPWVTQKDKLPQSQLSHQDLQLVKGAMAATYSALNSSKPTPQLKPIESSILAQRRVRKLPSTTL
Sequence of Phosphatidylinositol 4,5-bisphosphate 3-kinase catalytic subunit delta isoform (Homo sapiens) (O00329 whole entry, canonical isoform): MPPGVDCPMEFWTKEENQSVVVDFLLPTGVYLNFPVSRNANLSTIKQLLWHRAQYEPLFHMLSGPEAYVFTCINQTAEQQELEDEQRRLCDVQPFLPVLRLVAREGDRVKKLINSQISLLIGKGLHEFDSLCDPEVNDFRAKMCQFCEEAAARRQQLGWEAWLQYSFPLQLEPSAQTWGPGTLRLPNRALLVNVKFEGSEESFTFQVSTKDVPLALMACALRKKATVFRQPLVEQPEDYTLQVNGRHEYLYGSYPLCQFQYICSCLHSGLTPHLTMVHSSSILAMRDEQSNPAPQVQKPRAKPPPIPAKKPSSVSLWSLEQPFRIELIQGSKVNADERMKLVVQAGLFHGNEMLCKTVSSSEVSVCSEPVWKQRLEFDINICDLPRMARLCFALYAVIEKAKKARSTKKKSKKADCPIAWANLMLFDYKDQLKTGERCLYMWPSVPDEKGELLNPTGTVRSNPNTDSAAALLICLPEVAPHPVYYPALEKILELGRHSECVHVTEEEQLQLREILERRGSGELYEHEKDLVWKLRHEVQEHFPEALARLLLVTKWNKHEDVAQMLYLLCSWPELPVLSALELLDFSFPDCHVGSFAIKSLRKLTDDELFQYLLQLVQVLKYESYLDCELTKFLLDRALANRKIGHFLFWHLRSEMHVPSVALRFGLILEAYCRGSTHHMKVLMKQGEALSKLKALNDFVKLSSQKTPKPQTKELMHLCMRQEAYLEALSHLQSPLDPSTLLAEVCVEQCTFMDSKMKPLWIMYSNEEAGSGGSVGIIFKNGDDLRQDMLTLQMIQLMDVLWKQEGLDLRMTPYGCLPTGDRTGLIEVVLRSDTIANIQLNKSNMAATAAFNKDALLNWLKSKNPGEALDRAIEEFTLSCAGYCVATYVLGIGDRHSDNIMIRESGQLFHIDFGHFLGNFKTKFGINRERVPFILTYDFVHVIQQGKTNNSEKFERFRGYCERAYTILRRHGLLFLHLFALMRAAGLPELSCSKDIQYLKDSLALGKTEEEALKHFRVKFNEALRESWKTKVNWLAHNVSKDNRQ
Sequence of Serine/threonine-protein kinase SBK1 (Homo sapiens) (Q52WX2 whole entry): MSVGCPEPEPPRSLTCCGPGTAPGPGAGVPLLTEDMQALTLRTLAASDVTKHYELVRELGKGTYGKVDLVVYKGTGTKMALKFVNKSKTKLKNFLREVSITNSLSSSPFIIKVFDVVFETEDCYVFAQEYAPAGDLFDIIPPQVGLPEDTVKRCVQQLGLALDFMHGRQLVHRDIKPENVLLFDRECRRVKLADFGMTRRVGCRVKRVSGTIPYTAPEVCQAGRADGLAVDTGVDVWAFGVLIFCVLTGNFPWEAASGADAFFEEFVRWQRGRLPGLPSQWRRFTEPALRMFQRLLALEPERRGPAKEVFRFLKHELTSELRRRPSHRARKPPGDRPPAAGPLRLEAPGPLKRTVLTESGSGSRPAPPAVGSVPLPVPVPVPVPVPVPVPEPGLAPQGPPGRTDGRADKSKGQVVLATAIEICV
Sequence of Ribosomal protein S6 kinase alpha-5 (Homo sapiens) (O75582 whole entry, looked up): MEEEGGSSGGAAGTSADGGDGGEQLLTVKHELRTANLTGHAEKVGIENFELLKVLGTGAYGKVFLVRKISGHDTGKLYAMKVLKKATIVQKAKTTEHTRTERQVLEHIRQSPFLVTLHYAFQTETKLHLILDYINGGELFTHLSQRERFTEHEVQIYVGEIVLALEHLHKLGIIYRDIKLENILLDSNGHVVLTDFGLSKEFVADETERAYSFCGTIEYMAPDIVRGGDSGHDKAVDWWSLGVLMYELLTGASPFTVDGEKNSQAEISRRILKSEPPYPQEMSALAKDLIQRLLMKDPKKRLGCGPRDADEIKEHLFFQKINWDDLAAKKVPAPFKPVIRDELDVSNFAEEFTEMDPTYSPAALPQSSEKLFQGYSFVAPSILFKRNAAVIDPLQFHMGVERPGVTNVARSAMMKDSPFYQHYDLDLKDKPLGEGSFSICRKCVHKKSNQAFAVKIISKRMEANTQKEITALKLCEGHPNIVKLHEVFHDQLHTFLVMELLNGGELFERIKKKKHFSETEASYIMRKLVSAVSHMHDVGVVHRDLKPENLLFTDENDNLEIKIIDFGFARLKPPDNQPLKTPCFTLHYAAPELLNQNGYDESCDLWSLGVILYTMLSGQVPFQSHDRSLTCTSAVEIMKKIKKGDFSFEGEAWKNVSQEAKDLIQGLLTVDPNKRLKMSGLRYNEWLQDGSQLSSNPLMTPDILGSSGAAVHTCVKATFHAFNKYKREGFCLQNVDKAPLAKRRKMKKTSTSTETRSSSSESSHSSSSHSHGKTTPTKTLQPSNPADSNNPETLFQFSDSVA
Sequence of Calcium/calmodulin-dependent protein kinase kinase 2 (Homo sapiens) (Q96RR4 2-588 limits assumed): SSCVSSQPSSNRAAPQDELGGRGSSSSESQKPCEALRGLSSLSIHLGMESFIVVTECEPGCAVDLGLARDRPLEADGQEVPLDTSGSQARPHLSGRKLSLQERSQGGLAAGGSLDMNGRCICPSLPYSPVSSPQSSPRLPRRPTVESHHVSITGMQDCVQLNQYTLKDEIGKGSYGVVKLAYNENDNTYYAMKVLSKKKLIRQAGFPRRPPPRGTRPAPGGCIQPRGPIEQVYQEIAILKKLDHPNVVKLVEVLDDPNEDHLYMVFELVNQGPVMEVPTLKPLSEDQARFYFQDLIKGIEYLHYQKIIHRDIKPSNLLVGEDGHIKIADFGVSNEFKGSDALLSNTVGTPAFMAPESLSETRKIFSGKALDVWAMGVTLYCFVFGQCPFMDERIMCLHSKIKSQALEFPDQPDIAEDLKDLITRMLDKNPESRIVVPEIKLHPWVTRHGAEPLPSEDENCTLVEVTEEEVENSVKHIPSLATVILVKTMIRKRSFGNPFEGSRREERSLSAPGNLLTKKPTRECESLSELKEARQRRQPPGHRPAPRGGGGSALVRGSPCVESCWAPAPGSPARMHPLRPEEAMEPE
Sequence of Tyrosine-protein kinase Yes (Homo sapiens) (P07947 2-543 limits assumed): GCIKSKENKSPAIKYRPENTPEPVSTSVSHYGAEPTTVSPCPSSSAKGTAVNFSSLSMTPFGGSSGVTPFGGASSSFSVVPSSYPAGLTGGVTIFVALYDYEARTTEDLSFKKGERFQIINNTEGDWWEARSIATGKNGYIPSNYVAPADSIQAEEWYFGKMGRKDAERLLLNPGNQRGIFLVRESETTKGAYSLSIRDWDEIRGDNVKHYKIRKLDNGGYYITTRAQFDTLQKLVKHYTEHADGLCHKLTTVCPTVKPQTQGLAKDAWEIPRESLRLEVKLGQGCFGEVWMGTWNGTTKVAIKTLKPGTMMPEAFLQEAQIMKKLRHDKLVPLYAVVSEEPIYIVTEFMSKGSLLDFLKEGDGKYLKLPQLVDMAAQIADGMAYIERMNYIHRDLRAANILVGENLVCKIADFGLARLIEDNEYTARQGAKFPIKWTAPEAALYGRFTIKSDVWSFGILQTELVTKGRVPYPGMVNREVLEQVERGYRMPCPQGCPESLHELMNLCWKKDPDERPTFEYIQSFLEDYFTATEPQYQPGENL
Sequence of Mitogen-activated protein kinase 14 (Homo sapiens) (Q16539 whole entry): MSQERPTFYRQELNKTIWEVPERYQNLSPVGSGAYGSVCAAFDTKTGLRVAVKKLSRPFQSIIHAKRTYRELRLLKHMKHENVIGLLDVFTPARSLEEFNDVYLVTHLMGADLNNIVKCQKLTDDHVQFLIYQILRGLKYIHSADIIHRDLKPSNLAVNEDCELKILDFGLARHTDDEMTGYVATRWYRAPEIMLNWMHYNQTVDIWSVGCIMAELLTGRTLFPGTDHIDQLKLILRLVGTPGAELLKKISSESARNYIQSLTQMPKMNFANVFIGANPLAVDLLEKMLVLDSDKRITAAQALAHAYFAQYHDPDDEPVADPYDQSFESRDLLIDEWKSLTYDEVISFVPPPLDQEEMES
Sequence of Mitogen-activated protein kinase 1 (Homo sapiens) (P28482 whole entry): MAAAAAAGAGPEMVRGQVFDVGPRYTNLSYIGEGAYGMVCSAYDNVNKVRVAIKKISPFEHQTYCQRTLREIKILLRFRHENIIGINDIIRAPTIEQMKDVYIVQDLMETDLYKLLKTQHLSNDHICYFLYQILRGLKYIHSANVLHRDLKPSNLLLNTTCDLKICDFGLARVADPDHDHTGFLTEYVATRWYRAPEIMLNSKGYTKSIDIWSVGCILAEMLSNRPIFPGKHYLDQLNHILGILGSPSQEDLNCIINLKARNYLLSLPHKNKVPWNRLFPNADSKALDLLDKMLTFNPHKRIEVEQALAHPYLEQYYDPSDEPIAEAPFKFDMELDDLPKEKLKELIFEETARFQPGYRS

Q: Which results are given for `CN1CCN(c2cnc3c(C4CCN(C(=O)c5ccc(OC(F)(F)F)cc5N)CC4)ncnc3c2)CC1` [BAY-885]?
A: residual activity [1]: 99%; residual activity [2]: 88%; residual activity [3]: 100%; residual activity [4]: 94%; residual activity [5]: 100%; residual activity [6]: 99%; residual activity [7]: 100%; residual activity [8]: 100%; residual activity [9]: 100%; residual activity [10]: 86%; residual activity [11]: 95%; residual activity [12]: 99%; residual activity [13]: 100%; residual activity [14]: 100%; residual activity [15]: 100%; residual activity [16]: 100%; residual activity [17]: 100%

Q: What does the source list for `Cc1nc(C2CCN(C(=O)c3ccc(OC(F)(F)F)cc3N)CC2)c2ncc(N3CCN(C)CC3)cc2n1` [BAY-693]?
A: residual activity [1]: 100%; residual activity [2]: 100%; residual activity [3]: 100%; residual activity [4]: 98%; residual activity [5]: 100%; residual activity [6]: 93%; residual activity [7]: 100%; residual activity [8]: 99%; residual activity [9]: 94%; residual activity [10]: 78%; residual activity [11]: 95%; residual activity [12]: 100%; residual activity [13]: 100%; residual activity [14]: 100%; residual activity [15]: 40%; residual activity [16]: 100%; residual activity [17]: 100%
